From US20160130226A1, “SPIRO-SUBSTITUTED OXINDOLE DERIVATIVES HAVING AMPK ACTIVITY” (BOEHRINGER INGELHEIM INTERNATIONAL GMBH, priority 2013, published 2016)

Key:
[1] = molecular target: T1, AMPK beta 2 (Mus musculus, UniProt Q6PAM0+Q8BRK8); test: in-cell-ELISA for phospho-ACC: activation of AMPK, beta 2 (HepG2 cells / C2C12 myotubes); assay type: cell-based; conditions: 2 h, 1 μM, percentage activation over vehicle control, read-out: Percentage activation of beta 2 at given concentration
T1 construct: fully differentiated myotubes (C2C12 cells) grown in 96 well plate; endogenous in cells; host or cells: C2C12 myotubes (assignment to the beta 2 column inferred)
T1 sequence (Q6PAM0 whole entry): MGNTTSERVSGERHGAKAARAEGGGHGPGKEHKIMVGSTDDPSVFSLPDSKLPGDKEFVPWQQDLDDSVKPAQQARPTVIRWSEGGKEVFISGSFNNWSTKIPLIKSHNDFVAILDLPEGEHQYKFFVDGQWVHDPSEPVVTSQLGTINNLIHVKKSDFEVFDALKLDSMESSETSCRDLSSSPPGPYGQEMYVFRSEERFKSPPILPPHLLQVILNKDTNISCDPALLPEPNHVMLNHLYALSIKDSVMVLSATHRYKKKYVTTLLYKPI
T1 sequence (Q8BRK8 whole entry): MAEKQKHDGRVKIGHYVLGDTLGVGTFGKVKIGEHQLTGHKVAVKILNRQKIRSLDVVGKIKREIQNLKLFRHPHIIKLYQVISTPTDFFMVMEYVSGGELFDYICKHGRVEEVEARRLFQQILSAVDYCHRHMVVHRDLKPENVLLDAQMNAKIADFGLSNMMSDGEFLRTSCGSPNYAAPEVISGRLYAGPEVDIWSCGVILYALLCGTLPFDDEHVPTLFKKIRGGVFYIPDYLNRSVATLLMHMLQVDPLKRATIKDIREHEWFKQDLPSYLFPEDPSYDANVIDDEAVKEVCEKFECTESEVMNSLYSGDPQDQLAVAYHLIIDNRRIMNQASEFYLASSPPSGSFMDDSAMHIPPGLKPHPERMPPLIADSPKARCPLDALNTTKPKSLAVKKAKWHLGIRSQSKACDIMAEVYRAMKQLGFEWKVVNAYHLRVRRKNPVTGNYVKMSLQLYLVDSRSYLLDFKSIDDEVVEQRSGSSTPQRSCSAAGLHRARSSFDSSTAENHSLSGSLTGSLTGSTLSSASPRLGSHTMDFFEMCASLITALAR
T1 sequence (O54950 whole entry partner): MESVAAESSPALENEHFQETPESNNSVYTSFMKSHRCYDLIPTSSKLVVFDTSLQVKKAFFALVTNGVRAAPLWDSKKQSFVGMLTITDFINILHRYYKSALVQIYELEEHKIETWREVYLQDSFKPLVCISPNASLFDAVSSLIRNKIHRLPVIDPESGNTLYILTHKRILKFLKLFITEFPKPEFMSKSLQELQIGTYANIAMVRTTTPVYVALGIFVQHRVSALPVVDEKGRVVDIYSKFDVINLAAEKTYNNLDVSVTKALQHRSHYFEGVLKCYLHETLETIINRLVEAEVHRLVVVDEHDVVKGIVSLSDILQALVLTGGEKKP
Description: Activation of AMPK by various compounds were measured using in-cell-ELISA for phospho-ACC (Acetyl-CoA carboxylase 1) in HepG2 cells (liver) and fully differentiated myotubes (C2C12 cells) grown in 96 well plate. Cells were treated with 1 μM, 3 μM or 10 μM of the molecule (Example) for 2 h in serum free DMEM media. After methanol fixation, cells were blocked with BSA followed by addition of anti-phospho ACC antibody (Cell Signaling) and HRP conjugated secondary antibody. Absorbance values taken at 450 nm were normalized with total DNA (Hoechest stain). Results were expressed as percentage activation over vehicle control.
Percentage activation at compound (Example) concentration of 1, 3 or 10 μM for compounds according to the invention are shown in the following table. The number of the compound corresponds to the number of the Example (Ex) in the experimental section.

[2] = molecular target: T2, AMPK beta 1 (Homo sapiens, UniProt Q13131+Q9Y478); test: in-cell-ELISA for phospho-ACC: activation of AMPK, beta 1 (HepG2 cells / C2C12 myotubes); assay type: cell-based; conditions: 2 h, 1 μM, percentage activation over vehicle control, read-out: Percentage activation of beta 1 at given concentration
T2 construct: in-cell-ELISA for phospho-ACC (Acetyl-CoA carboxylase 1) in HepG2 cells (liver); endogenous in cells; host or cells: HepG2 (assignment to the beta 1 column inferred)
T2 sequence (Q9Y478 2-270 limits assumed): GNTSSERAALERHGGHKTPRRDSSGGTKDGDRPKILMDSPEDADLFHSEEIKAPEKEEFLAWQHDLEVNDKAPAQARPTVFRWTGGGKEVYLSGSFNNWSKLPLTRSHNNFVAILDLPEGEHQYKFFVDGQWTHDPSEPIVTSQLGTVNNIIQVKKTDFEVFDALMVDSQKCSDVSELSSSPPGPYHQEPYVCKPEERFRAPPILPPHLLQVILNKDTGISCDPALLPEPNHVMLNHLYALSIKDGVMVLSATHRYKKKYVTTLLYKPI
T2 sequence (Q13131 whole entry): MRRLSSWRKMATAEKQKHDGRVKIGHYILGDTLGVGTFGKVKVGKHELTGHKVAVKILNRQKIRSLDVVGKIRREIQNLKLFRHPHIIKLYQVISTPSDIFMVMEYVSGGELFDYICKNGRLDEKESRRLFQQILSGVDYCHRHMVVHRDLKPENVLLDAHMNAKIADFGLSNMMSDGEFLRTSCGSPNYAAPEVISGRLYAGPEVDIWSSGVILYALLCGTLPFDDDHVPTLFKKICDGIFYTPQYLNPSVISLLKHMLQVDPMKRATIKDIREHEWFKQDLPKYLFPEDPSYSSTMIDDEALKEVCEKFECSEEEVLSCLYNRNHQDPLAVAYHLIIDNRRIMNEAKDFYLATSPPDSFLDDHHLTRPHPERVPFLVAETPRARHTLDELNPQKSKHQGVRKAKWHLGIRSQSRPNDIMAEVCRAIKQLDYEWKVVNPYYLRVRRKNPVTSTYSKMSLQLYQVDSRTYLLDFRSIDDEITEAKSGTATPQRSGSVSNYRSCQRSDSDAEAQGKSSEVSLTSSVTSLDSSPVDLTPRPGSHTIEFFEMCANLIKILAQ
T2 sequence (P54619 whole entry partner): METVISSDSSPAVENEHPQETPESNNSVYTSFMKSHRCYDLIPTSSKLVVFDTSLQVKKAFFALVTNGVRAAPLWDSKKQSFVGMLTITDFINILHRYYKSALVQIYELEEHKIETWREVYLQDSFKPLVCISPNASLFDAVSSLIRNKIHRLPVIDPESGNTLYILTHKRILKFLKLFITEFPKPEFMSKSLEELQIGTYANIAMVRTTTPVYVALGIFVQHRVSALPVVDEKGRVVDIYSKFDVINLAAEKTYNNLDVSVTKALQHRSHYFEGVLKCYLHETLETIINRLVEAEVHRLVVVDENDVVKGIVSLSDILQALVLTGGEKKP
Method in brief: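 HepG2 cells and differentiated C2C12 myotubes treated with compound at 1, 3 or 10 μM for 2 h in serum-free DMEM. Phospho-ACC detected by in-cell ELISA after methanol fixation (HRP secondary, A450), normalized to DNA (Hoechst); expressed as % activation over vehicle control.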

| activation at 1 µM [1] | activation at 1 µM [2] | SMILES |
| --- | --- | --- |
| 50% | 58% | O=C(O)c1cccc(C2CC23C(=O)Nc2cc(F)c(-c4ccc(-c5ccc(-n6cccn6)cc5)cc4)cc23)c1 (stereo not drawn) [Example 170] |
| 60% | 119% | O=C(O)Cc1cccc(C2CC23C(=O)Nc2cc(F)c(-c4ccc(-c5ccc(-n6cncn6)cc5)cc4)cc23)c1 (stereo not drawn) [Example 175] |
| 126% | 91% | COc1ccc(C2CC23C(=O)Nc2cc(F)c(-c4ccc(-c5ccc(-n6cccn6)cc5)cc4)cc23)cc1CC(=O)O (stereo not drawn) [Example 176] |
| 120% | 98% | COc1ccc(C2CC23C(=O)Nc2cc(F)c(-c4ccc(-c5ccc(-n6cncn6)cc5)cc4)cc23)cc1CC(=O)O (stereo not drawn) [Example 178] |
| 88% | 88% | Cc1ccc(C2CC23C(=O)Nc2cc(Cl)c(-c4ccc(-c5ccccc5O)cc4)cc23)cc1CO (stereo not drawn) [Example 181] |
| 94% | 121% | Cc1ccc(C2CC23C(=O)Nc2cc(F)c(-c4ccc(-c5ccccc5O)cc4)cc23)cc1CO (stereo not drawn) [Example 190] |
